In ChEMBL document CHEMBL5537150, “Synthesis of melampomagnolide B derivatives as potential anti-Triple Negative Breast Cancer agents” (Eur J Med Chem, 2024):
Activity calls are given as the source filed them. The calls are words filed in the database; no cut-off is given here.

Key:
MDA-MB-231 [1] = experiment: Antiproliferative activity against human MDA-MB-231 cells assessed as inhibition of cell growth incubated for 72 hrs by MTT assay; type: functional, cell-based; conditions: MDA-MB-231, 72 h
MDA-MB-468 [2] = experiment: Induction of apoptosis in human MDA-MB-468 cells at 0.5 uM incubated for 48 hrs by annexin-V-APC/PI staining based flow cytometric analysis (reference value: 5.65 +/- 2.76 %); type: functional
MDA-MB-468 [3] = experiment: Induction of apoptosis in human MDA-MB-468 cells at 0.2 uM incubated for 48 hrs by annexin-V-APC/PI staining based flow cytometric analysis (reference value: 5.65 +/- 2.76 %); type: functional
MDA-MB-468 [4] = experiment: Antiproliferative activity against human MDA-MB-468 cells assessed as inhibition of cell growth incubated for 72 hrs by MTT assay; type: functional, cell-based; conditions: MDA-MB-468, 72 h
MDA-MB-231 [5] = experiment: Induction of apoptosis in human MDA-MB-231 cells at 0.5 uM incubated for 48 hrs by annexin-V-APC/PI staining based flow cytometric analysis (reference value: 5.9 +/- 0.26 %); type: functional
MDA-MB-468 [6] = experiment: Antimigratory activity in human MDA-MB-468 cells assessed as downregulation of Vimentin protein expression incubated for 48 hrs by Western blotting analysis; type: functional, cell-based
MCF7 = experiment: Antiproliferative activity against human MCF7 cells assessed as inhibition of cell growth incubated for 72 hrs by MTT assay; type: functional, cell-based; conditions: MCF7, 72 h
MDA-MB-231 [7] = experiment: Induction of apoptosis in human MDA-MB-231 cells assessed as downregulation of BCL-2 protein expression incubated for 48 hrs by Western blotting analysis; type: functional, cell-based
MDA-MB-231 [8] = experiment: Induction of apoptosis in human MDA-MB-231 cells at 1 uM incubated for 48 hrs by annexin-V-APC/PI staining based flow cytometric analysis (reference value: 5.9 +/- 0.26 %); type: functional
NIH3T3 = experiment: Cytotoxicity against mouse 3T3 cells at 1 uM incubated for 72 hrs by MTT assay; type: toxicity, cell-based; conditions: nih3t3, 72 h
MDA-MB-231 [9] = experiment: Antimigratory activity in human MDA-MB-231 cells assessed as downregulation of Vimentin protein expression incubated for 48 hrs by Western blotting analysis; type: functional, cell-based
MDA-MB-231 [10] = experiment: Inhibition of NF-kappaB signalling pathway in human MDA-MB-231 cells assessed as effect on total p65 protein level at 0.2 to 2 uM incubated for 48 hrs by Western blotting analysis; type: cell-based; conditions: dose 0.2-2 µM
MDA-MB-231 [11] = experiment: Inhibition of NF-kappaB signalling pathway in human MDA-MB-231 cells assessed as upregulation of cytoplasmic p65 expression at 0.2 to 2 uM incubated for 48 hrs by Western blotting analysis; type: cell-based; conditions: dose 0.2-2 µM
MDA-MB-231 [12] = experiment: Induction of apoptosis in human MDA-MB-231 cells assessed as downregulation of BCL-xl protein expression incubated for 48 hrs by Western blotting analysis; type: functional, cell-based
MDA-MB-231 [13] = experiment: Induction of apoptosis in human MDA-MB-231 cells at 2 uM incubated for 48 hrs by annexin-V-APC/PI staining based flow cytometric analysis (reference value: 5.9 +/- 0.26 %); type: functional
MDA-MB-468 [14] = experiment: Antimigratory activity in human MDA-MB-468 cells assessed as downregulation of N-cadherin protein expression incubated for 48 hrs by Western blotting analysis; type: functional, cell-based
MDA-MB-231 [15] = experiment: Induction of apoptosis in human MDA-MB-231 cells at 5 uM incubated for 48 hrs by annexin-V-APC/PI staining based flow cytometric analysis (reference value: 5.9 +/- 0.26 %); type: functional
MDA-MB-231 [16] = experiment: Induction of apoptosis in human MDA-MB-231 cells assessed as downregulation of MCL-1 protein expression incubated for 48 hrs by Western blotting analysis; type: functional, cell-based
MDA-MB-468 [17] = experiment: Induction of apoptosis in human MDA-MB-468 cells at 5 uM incubated for 48 hrs by annexin-V-APC/PI staining based flow cytometric analysis (reference value: 5.65 +/- 2.76 %); type: functional
MDA-MB-231 [18] = experiment: Antimigratory activity in human MDA-MB-231 cells assessed as downregulation of N-cadherin protein expression incubated for 48 hrs by Western blotting analysis; type: functional, cell-based
MDA-MB-468 [19] = experiment: Induction of apoptosis in human MDA-MB-468 cells at 1 uM incubated for 48 hrs by annexin-V-APC/PI staining based flow cytometric analysis (reference value: 5.65 +/- 2.76 %); type: functional
MDA-MB-231 [20] = experiment: Inhibition of NF-kappaB signalling pathway in human MDA-MB-231 cells assessed as downregulation of p65 phosphorylation at 0.5 to 2 uM incubated for 48 hrs by Western blotting analysis; type: cell-based; conditions: dose 0.5-2 µM
MDA-MB-468 [21] = experiment: Antimigratory activity in human MDA-MB-468 cells assessed as reduction in number of migrated cells incubated for 48 hrs by crystal violet staining based transwell assay; type: functional, cell-based
MDA-MB-231 [22] = experiment: Inhibition of NF-kappaB signalling pathway in human MDA-MB-231 cells assessed as inhibition of p65 nuclear translocation at 0.2 to 2 uM incubated for 48 hrs by Western blotting analysis; type: cell-based; conditions: dose 0.2-2 µM
MDA-MB-231 [23] = experiment: Induction of apoptosis in human MDA-MB-231 cells at 0.2 uM incubated for 48 hrs by annexin-V-APC/PI staining based flow cytometric analysis (reference value: 5.9 +/- 0.26 %); type: functional
4T1 = experiment: Antiproliferative activity against mouse 4T1 cells assessed as inhibition of cell growth incubated for 72 hrs by MTT assay; type: functional, cell-based; conditions: 4T1, 72 h
MDA-MB-231 [24] = experiment: Inhibition of NF-kappaB signalling pathway in human MDA-MB-231 cells assessed as downregulation of nuclear p65 expression at 0.2 to 2 uM incubated for 48 hrs by Western blotting analysis; type: cell-based; conditions: dose 0.2-2 µM
MDA-MB-468 [25] = experiment: Induction of apoptosis in human MDA-MB-468 cells at 2 uM incubated for 48 hrs by annexin-V-APC/PI staining based flow cytometric analysis (reference value: 5.65 +/- 2.76 %); type: functional
MDA-MB-231 [26] = experiment: Antimigratory activity in human MDA-MB-231 cells assessed as reduction in number of migrated cells incubated for 48 hrs by crystal violet staining based transwell assay; type: functional, cell-based
SUM-159-PT = experiment: Antiproliferative activity against human SUM159 cells assessed as inhibition of cell growth incubated for 72 hrs by MTT assay; type: functional, cell-based
MDA-MB-231 [27] = experiment: Inhibition of NF-kappaB signalling pathway in human MDA-MB-231 cells assessed as downregulation of IkappaBalpha phosphorylation at 0.5 to 2 uM incubated for 48 hrs by Western blotting analysis; type: cell-based; conditions: dose 0.5-2 µM
MDA-MB-231 [28] = experiment: Induction of apoptosis in human MDA-MB-231 cells assessed as upregulation of Bax protein expression incubated for 48 hrs by Western blotting analysis; type: functional, cell-based

## C=C1C(=O)O[C@H]2[C@H]1C(COC(=O)CCCCC(=O)O)C/C=C\CC[C@@]1(C)O[C@@H]21 (some centres undefined)
MDA-MB-231 [1]
  IC50: > 50 µM

## C=C1C(=O)O[C@H]2[C@H]1C(COC(=O)/C=C/c1ccccc1OCCc1ccc(-c3cc(=S)ss3)cc1)C/C=C\CC[C@@]1(C)O[C@@]21C (some centres undefined)
MDA-MB-468 [2]
  Activity: 4.3%
MDA-MB-468 [3]
  Activity: 5.8%
MDA-MB-468 [4]
  IC50: 0.37 µM
MDA-MB-231 [5]
  Activity: 7.9%
MDA-MB-468 [6]
  Activity: Dose-Dependent Effect
MCF7
  IC50: 1.81 µM
MDA-MB-231 [7]
  Activity: Dose-Dependent Effect
MDA-MB-231 [8]
  Activity: 15.46%
NIH3T3
  Activity: Toxic
MDA-MB-231 [9]
  Activity: Dose-Dependent Effect
MDA-MB-231 [10]
  inhibition: inactive
MDA-MB-231 [11]
  inhibition: Active
MDA-MB-231 [12]
  Activity: Dose-Dependent Effect
MDA-MB-231 [13]
  Activity: 20.32%
MDA-MB-468 [14]
  Activity: Dose-Dependent Effect
MDA-MB-231 [15]
  Activity: 49.35%
MDA-MB-231 [16]
  Activity: Dose-Dependent Effect
MDA-MB-468 [17]
  Activity: 52.61%
MDA-MB-231 [18]
  Activity: Dose-Dependent Effect
MDA-MB-468 [19]
  Activity: 4.87%
MDA-MB-231 [20]
  inhibition: Active
MDA-MB-231 [1]
  IC50: 1.07 µM
MDA-MB-468 [21]
  Activity: Dose-Dependent Effect
MDA-MB-231 [22]
  inhibition: Active
MDA-MB-231 [23]
  Activity: 6.85%
4T1
  IC50: 2.85 µM
MDA-MB-231 [24]
  inhibition: Active
MDA-MB-468 [25]
  Activity: 11.32%
MDA-MB-231 [26]
  Activity: Dose-Dependent Effect
SUM-159-PT
  IC50: 1.06 µM
MDA-MB-231 [27]
  inhibition: Active
MDA-MB-231 [28]
  Activity: Dose-Dependent Effect

## C=C1C(=O)O[C@H]2[C@H]1C(COC(=O)c1cc3ccccc3cc1C(=O)Oc1ccc(-c3cc(=S)ss3)cc1)C/C=C\CC[C@@]1(C)O[C@@H]21 (some centres undefined)
MDA-MB-231 [1]
  IC50: 7.58 µM

## C=C1C(=O)O[C@H]2[C@H]1C(COC(=O)CC(C)(C)CC(=O)O)C/C=C\CC[C@@]1(C)O[C@@H]21 (some centres undefined)
MDA-MB-231 [1]
  IC50: 36.4 µM

## C=C1C(=O)O[C@H]2[C@H]1CC/C(C(=O)Oc1ccc(-c3cc(=S)ss3)cc1)=C\CC[C@@]1(C)O[C@@H]21
MDA-MB-231 [1]
  IC50: 1.39 µM

## C=C1C(=O)O[C@H]2[C@H]1C(COC(=O)c1cc3ccccc3cc1C(=O)O)C/C=C\CC[C@@]1(C)O[C@@H]21 (some centres undefined)
MDA-MB-231 [1]
  IC50: 4.96 µM

## C=C1C(=O)O[C@H]2[C@H]1C(COC(=O)CC1(CC(=O)Oc3ccc(-c4cc(=S)ss4)cc3)CCCCC1)C/C=C\CC[C@@]1(C)O[C@@H]21 (some centres undefined)
MDA-MB-231 [1]
  IC50: 1.76 µM

## Oc1ccc(-c2cc(=S)ss2)cc1
MDA-MB-231 [1]
  IC50: > 50 µM

## C=C1C(=O)O[C@H]2[C@H]1C(COC(=O)CCC(=O)Oc1ccc(-c3cc(=S)ss3)cc1)C/C=C\CC[C@@]1(C)O[C@@H]21 (some centres undefined)
MDA-MB-231 [1]
  IC50: 4.34 µM

## C=C1C(=O)O[C@H]2[C@H]1C(COC(=O)CCCCC(=O)Oc1ccc(-c3cc(=S)ss3)cc1)C/C=C\CC[C@@]1(C)O[C@@H]21 (some centres undefined)
MDA-MB-231 [1]
  IC50: 6.2 µM

## C=C1C(=O)O[C@H]2[C@H]1CC/C(C(=O)O)=C\CC[C@@]1(C)O[C@@H]21
MDA-MB-231 [1]
  IC50: > 50 µM

## C=C1C(=O)O[C@H]2[C@H]1CC/C(C(=O)OCCCOc1ccc(-c3cc(=S)ss3)cc1)=C\CC[C@@]1(C)O[C@@H]21
MDA-MB-231 [1]
  IC50: 2.09 µM

## C=C1C(=O)O[C@H]2[C@H]1CC/C(C(=O)OCCOc1ccc(-c3cc(=S)ss3)cc1)=C\CC[C@@]1(C)O[C@@H]21
MDA-MB-231 [1]
  IC50: 2.35 µM
